Source: US5420140A, “Difluorinated quinolones useful for treating bacterial infections” (Bouchara S.A., priority 1991, dated 1995)
In brackets after ≈: the same amount, converted by molar mass.

Experiments:
S. aureus CB-951 = experiment: Determination of MIC and MBC by microdilution method, S. aureus CB-951; assay type: cell-based, Staphylococcus aureus; details: erythromycinolincomycino, pefloxacino resistant; for MIC / MBC: Staphylococcus aureus; for MIC: CB951, 18 h, read-out: Minimal inhibitory concentration (MIC); for MBC: CB951, S. aureus CB-951, methicillino, read-out: Minimal bactericidal concentration (MBC)
Method: (§1) The compound have been tested towards 7 reference strains:
Staphylococcus aureus CB 951
(§2) The determination of minimal inhibitory concentrations (MIC) has been performed using a microdution method (microplates and inoculator Dynatech) in liquid medium (MUELLER-HINTON broth) under a volume of 100 μl and for a range of concentrations from 128 to 0.06 mg/l, prepared from a mother liquor of antibiotics titrating 512 mg/l. The preparation of these mother liquors has been performed and vary depending on the molecules as a function of the solubility criterions. Inoculation has been done by adding in each will, 10 μl of a dilution in saline of 18 hours old broth in a brain-heart broth, such as each well contains about 10^6 bacterias/ml.
(§3) The Minimal Inhibitory Concentrations are read as the first concentration of antibiotic which will not give a growth macroscopically detectable after 18 hours incubating at 37°.

[1] = system: Pseudomonas aeruginosa ATCC 22853; experiment: Determination of MIC and MBC by microdilution method, Pseudomonas aeruginosa ATCC 22853; assay type: cell-based; details: for MIC / MBC: Pseudomonas aeruginosa; for MIC: ATCC22853, 18 h, read-out: Minimal inhibitory concentration (MIC); for MBC: ATCC22853, P. aeruginosa ATCC 22853, read-out: Minimal bactericidal concentration (MBC)
Method: as §1
Pseudomonas aeruginosa ATCC 22853
(§4) The preparation of these mother liquors has been performed and vary depending on the molecules as a function of the solubility criterions. Inoculation has been done by adding in each will, 10 μl of a dilution in saline of 18 hours old broth in a brain-heart broth, such as each well contains about 10^6 bacterias/ml. […]

[2] = system: Staphylococcus aureus ATCC 25923; experiment: Determination of MIC and MBC by microdilution method, Staphylococcus aureus ATCC 25923; assay type: cell-based; details: for MIC / MBC: Staphylococcus aureus; for MIC: ATCC25923, 18 h, read-out: Minimal inhibitory concentration (MIC); for MBC: ATCC25923, S. aureus ATCC 25923, read-out: Minimal bactericidal concentration (MBC)
Method: as §1
Staphylococcus aureus ATCC 25923
as §2, §3

[3] = system: Escherichia coli ATCC 25922; experiment: Determination of MIC and MBC by microdilution method, Escherichia coli ATCC 25922; assay type: cell-based; details: E. coli ATCC 25922; for MIC / MBC: Escherichia coli, ATCC25922; for MIC: read-out: Minimal inhibitory concentration (MIC); for MBC: read-out: Minimal bactericidal concentration (MBC)
Method: as §1
Escherichia coli ATCC 25922
as §2, §3

[4] = system: Acinetobacter Baumanii ATCC 17904; experiment: Determination of MIC and MBC by microdilution method, Acinetobacter; assay type: cell-based; details: for MIC / MBC: Acinetobacter baumannii; for MIC: ATCC17904, 18 h, read-out: Minimal inhibitory concentration (MIC); for MBC: ATCC17904, Acinetobacter Baumanii ATCC 17904, read-out: Minimal bactericidal concentration (MBC)
Method: The compound have been tested towards 7 reference strains: […]
as §2, §3

[5] = system: Streptococcus faecalis ATCC 8043; experiment: Determination of MIC and MBC by microdilution method, Streptococcus faecalis ATCC 8043; assay type: cell-based; details: for MBC / MIC: Enterococcus faecalis; for MBC: ATCC8043, S. faecalis ATCC 8043, read-out: Minimal bactericidal concentration (MBC); for MIC: ATCC8043, read-out: Minimal inhibitory concentration (MIC)
Method: as §1
Streptococcus faecalis ATCC 8043
as §4

[6] = S. aureus CB-951, methicillino, Mueller-Hinton broth, 18 hours at 37°
[7] = P. aeruginosa ATCC 22853, Mueller-Hinton broth, 18 hours at 37°
[8] = S. aureus ATCC 25923, Mueller-Hinton broth, 18 hours at 37°
[9] = Mueller-Hinton broth, 18 hours at 37°
[10] = Acinetobacter Baumanii ATCC 17904, Mueller-Hinton broth, 18 hours at 37°
[11] = S. faecalis ATCC 8043, Mueller-Hinton broth, 18 hours at 37°

SMILES	MIC (S. aureus CB-951; [6]) [µg/mL]	MBC (S. aureus CB-951) [µg/mL]	MIC [1, 7] [µg/mL]	MBC [1] [µg/mL]	MIC [2, 8] [µg/mL]	MBC [2] [µg/mL]	MIC [3, 9] [µg/mL]	MBC [3] [µg/mL]	MIC [4, 10] [µg/mL]	MBC [4] [µg/mL]	MBC [5] [µg/mL]	MIC [5, 11] [µg/mL]	also measured
CCC(=O)NCC1CCN(c2c(F)cc3c(=O)c(C(=O)O)cn(CC)c3c2F)CC1 [Compound 7, 7-[(4-propionylaminomethyl)piperidinyl-1] 6,8-difluoro 1-ethyl 4-oxo 1,4-dihydroquinoleinyl-3 carboxylic acid]	1 (≈ 2.37 µM)	1 (≈ 2.37 µM)	> 16	> 16	0.5 (≈ 1.19 µM)	0.51 (≈ 1.21 µM)	8 (≈ 19 µM)	8 (≈ 19 µM)	0.25 (≈ 0.593 µM)	0.5 (≈ 1.19 µM)	8 (≈ 19 µM)	8 (≈ 19 µM)	
CCn1cc(C(=O)O)c(=O)c2cc(F)c(N3CCC(CN)CC3)c(F)c21 [Compound b, 7-(4-aminomethylpiperidinyl-1) 6,8-difluoro 1-ethyl 4-oxo 1,4-dihydroquinoleinyl-3 carboxylic acid]													Minimal bactericidal concentration (MBC) (S. aureus CB-951; S. aureus CB-951, methicillino): 4 µg/mL (≈ 10.9 µM); Minimal inhibitory concentration (MIC) (S. aureus CB-951; [6]): 4 µg/mL (≈ 10.9 µM); Minimal bactericidal concentration (MBC) ([1]; P. aeruginosa ATCC 22853): 8 µg/mL (≈ 21.9 µM); Minimal inhibitory concentration (MIC) [1, 7]: 4 µg/mL (≈ 10.9 µM); Minimal bactericidal concentration (MBC) ([2]; S. aureus ATCC 25923): 0,5 μg/ml; Minimal inhibitory concentration (MIC) [2, 8]: 0,5 μg/ml; Minimal bactericidal concentration (MBC) [3]: 0,5 μg/ml; Minimal inhibitory concentration (MIC) [3, 9]: 0,5 μg/ml; Minimal bactericidal concentration (MBC) ([4]; Acinetobacter Baumanii ATCC 17904): 0,5 μg/ml; Minimal inhibitory concentration (MIC) [4, 10]: 0,5 μg/ml; Minimal bactericidal concentration (MBC) ([5]; S. faecalis ATCC 8043): 1 µg/mL (≈ 2.74 µM); Minimal inhibitory concentration (MIC) [5, 11]: 0,5 μg/ml
NCC1CCN(c2c(F)cc3c(=O)c(C(=O)O)cn(CCF)c3c2F)CC1 [Compound 3, 7-(4-aminomethylpiperidinyl-1) 6,8-difluoro 1-fluoroethyl 4-oxo 1,4-dihydroquinoleinyl-3 carboxylic acid]	4 (≈ 10.4 µM)	8 (≈ 20.9 µM)	8 (≈ 20.9 µM)	16 (≈ 41.7 µM)	0.5 (≈ 1.3 µM)	1 (≈ 2.61 µM)	2 (≈ 5.22 µM)	2 (≈ 5.22 µM)	2 (≈ 5.22 µM)	4 (≈ 10.4 µM)	4 (≈ 10.4 µM)	2 (≈ 5.22 µM)	
CCn1cc(C(=O)O)c(=O)c2cc(F)c(N3CCC(CNC(=O)Nc4ccc(C)cc4)CC3)c(F)c21 [Compound 12]	0.25 (≈ 0.501 µM)	1 (≈ 2.01 µM)	> 16	> 16	0.06 (≈ 0.12 µM)	0.06 (≈ 0.12 µM)	> 16	> 16	0.06 (≈ 0.12 µM)	0.06 (≈ 0.12 µM)	4 (≈ 8.02 µM)	4 (≈ 8.02 µM)	
CCC(=O)NCC1CCN(c2c(F)cc3c(=O)c(C(=O)O)cn(CCF)c3c2F)CC1 [Compound 8, 7-[(4-propionylaminomethyl)piperidinyl-1] 6,8-difluoro1-fluoroethyl 4-oxo 1,4-dihydroquinoleinyl-3 carboxylic acid]	0.3 (≈ 0.683 µM)	0.7 (≈ 1.59 µM)	> 12	> 12	0.15 (≈ 0.341 µM)	0.3 (≈ 0.683 µM)	6 (≈ 13.7 µM)	> 12	0.3 (≈ 0.683 µM)	0.7 (≈ 1.59 µM)	> 12	6 (≈ 13.7 µM)	
CCn1cc(C(=O)O)c(=O)c2cc(F)c(N3CCC(CNC(=O)CCO)CC3)c(F)c21 [Compound 2, 7-(4-(3-hydroxypropionylaminomethyl)piperidinyl-1) 6,8-difluoro 1-ethyl 4-oxo 1,4-dihydroquinoleinyl-3 carboxylic acid]	4 (≈ 9.14 µM)	4 (≈ 9.14 µM)	> 32	> 32	0.5 (≈ 1.14 µM)	1 (≈ 2.29 µM)	8 (≈ 18.3 µM)	8 (≈ 18.3 µM)	2 (≈ 4.57 µM)	4 (≈ 9.14 µM)	4 (≈ 9.14 µM)	4 (≈ 9.14 µM)	
